One may read the inhibition as the drop in the measured response relative to a control, in per cent.

What all share (format): biochemical
The target in one assay is Lyn (h) (Homo sapiens, UniProt P07948). In words: Lyn human kinase assay (glass-fiber filter). As to conditions: test concentration of 10^−6M; for inhibition at 1 µM: read-out: C10 score (inhibition of Lyn human). An outline of the steps:
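Human Lyn (5-10 mU) phosphorylating poly(Glu,Tyr) 4:1 at 0.1 mg/ml with [γ-33P]ATP (concentration as required) in 50 mM Tris pH 7.5, 10 mM Mg acetate, 40 min at room temperature. Stopped with phosphoric acid; substrate-bound radioactivity counted on glass-fibre filter.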

Another assay deals with Yes (h) (Homo sapiens, UniProt P07947). Briefly: Yes human kinase assay (glass-fiber filter). The note with it: test concentration of 10^−6M; for inhibition at 1 µM: read-out: C11 score (inhibition of Yes human). An outline of the steps:
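Yes (h) (5-10 mU) with 0.1 mg/ml poly(Glu, Tyr) 4:1 in 8 mM MOPS pH 7.0, 0.2 mM EDTA, 10 mM MgAcetate and [γ-^33P-ATP], 40 minutes at room temperature. Stopped with phosphoric acid; substrate-bound ^33P counted on glass-fiber filter by scintillation.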

Another assay addresses CSK (h) (Homo sapiens, UniProt P41240). In words: CSK human kinase assay (glass-fiber filter). As to conditions: test concentration of 10^−6M; for inhibition at 1 µM: read-out: C2 score (inhibition of CSK human). An outline of the steps: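 Radiometric filter-binding assay: human CSK (5-10 mU) with 0.1 mg/ml poly(Glu, Tyr) 4:1 and [γ-33P]-ATP (concentration as required) in 50 mM Tris pH 7.5, 10 mM MnCl2, 10 mM MgAcetate. Incubated 40 minutes at room temperature, stopped with phosphoric acid; substrate-bound 33P counted.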

The target of a further assay is Fms (h) (Homo sapiens, UniProt P07333). In words: Fms human kinase assay (glass-fiber filter). The note with it: test concentration of 10^−6M; for inhibition at 1 µM: read-out: C7 score (inhibition of Fms human). An outline of the steps:
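Radiometric filter-binding assay: Fms (5-10 mU) with 250 μM peptide substrate and [γ-33P]ATP in 8 mM MOPS pH 7.0, 10 mM Mg acetate, 40 min at room temperature. Reaction stopped with phosphoric acid; substrate-bound 33P counted on P30 filtermat.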

Fms (h), sequence (P07333 20-972): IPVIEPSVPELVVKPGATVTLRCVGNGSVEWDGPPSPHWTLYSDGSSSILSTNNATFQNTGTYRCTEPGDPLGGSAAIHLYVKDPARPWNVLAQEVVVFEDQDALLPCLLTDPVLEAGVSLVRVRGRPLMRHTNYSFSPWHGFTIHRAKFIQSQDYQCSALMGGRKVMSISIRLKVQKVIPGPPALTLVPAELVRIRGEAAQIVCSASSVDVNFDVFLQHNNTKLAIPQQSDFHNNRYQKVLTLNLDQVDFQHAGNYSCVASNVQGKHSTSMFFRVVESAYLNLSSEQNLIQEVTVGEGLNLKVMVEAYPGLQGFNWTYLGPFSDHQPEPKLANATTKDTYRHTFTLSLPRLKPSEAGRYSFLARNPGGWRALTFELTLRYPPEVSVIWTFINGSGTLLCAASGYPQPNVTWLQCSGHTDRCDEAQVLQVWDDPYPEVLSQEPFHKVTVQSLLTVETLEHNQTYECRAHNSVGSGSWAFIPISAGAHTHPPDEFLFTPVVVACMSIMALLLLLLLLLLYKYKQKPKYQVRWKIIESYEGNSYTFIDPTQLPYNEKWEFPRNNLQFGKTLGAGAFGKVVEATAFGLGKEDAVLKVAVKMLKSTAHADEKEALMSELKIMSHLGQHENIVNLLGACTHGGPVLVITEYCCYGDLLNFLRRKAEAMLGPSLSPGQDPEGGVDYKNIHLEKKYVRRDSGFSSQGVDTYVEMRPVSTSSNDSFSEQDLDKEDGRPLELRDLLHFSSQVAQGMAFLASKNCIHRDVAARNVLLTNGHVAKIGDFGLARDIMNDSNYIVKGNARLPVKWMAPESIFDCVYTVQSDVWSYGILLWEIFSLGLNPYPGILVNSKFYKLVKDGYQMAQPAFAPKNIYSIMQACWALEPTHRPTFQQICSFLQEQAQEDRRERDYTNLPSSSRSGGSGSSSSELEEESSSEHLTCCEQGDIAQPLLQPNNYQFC
CSK (h), sequence (P41240 whole entry): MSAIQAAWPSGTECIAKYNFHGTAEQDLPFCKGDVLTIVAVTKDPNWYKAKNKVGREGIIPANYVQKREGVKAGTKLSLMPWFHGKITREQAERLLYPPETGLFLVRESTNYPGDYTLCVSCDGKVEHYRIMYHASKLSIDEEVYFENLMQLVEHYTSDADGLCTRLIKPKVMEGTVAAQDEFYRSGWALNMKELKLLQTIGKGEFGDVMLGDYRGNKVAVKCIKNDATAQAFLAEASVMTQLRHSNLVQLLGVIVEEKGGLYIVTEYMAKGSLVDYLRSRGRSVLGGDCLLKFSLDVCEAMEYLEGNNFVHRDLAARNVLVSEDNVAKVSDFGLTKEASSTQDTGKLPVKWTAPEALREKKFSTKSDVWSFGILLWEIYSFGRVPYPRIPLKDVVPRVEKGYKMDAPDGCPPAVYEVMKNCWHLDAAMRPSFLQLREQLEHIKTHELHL
Yes (h), sequence (P07947 whole entry): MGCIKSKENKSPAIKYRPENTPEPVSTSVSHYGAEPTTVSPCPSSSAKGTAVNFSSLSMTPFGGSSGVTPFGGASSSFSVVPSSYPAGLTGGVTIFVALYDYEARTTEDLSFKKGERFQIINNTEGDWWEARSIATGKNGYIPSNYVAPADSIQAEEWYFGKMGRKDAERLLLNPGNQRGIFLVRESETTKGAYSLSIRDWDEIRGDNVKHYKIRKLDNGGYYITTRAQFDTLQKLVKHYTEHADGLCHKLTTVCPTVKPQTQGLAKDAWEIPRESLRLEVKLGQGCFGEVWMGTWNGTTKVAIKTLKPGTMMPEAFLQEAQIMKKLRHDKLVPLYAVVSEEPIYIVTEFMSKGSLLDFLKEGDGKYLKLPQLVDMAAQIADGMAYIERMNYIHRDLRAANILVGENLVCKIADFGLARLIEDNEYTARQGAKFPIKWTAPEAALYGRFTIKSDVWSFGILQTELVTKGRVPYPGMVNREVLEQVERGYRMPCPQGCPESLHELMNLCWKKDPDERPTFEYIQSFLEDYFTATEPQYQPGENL
Lyn (h), sequence (P07948 whole entry): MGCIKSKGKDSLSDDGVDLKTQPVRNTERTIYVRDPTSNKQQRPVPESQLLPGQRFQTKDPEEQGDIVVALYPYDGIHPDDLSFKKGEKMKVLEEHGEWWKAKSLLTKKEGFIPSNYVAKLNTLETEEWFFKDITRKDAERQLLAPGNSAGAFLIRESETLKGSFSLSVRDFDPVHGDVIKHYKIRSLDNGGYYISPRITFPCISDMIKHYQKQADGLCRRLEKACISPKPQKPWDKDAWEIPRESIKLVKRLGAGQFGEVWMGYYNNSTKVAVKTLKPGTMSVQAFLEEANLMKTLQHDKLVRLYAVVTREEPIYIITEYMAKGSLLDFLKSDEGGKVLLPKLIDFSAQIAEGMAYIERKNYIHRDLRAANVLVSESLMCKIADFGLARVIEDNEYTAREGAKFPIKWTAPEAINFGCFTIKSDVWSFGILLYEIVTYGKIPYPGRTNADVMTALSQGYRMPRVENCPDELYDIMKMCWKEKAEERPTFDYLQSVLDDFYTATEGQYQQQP

As to “1H,7H-2,6: 12,8-dimetheno-14H-13,19,1,3,5,7-benzodioxatetraazacycloheneicosine, 22-bromo-15,16,17,18-tetrahydro-11-methoxy- [Compound 35]”, the “C10 score (inhibition of Lyn human)” value on Lyn (h) was 2 (Score 2=30-60% inhibition). Moreover, the “C11 score (inhibition of Yes human)” value at Yes (h) was 3 (Score 3=60-80% inhibition). The “C2 score (inhibition of CSK human)” value at CSK (h) was 1 (Score 1=10-30% inhibition). Besides, the “C7 score (inhibition of Fms human)” value on Fms (h) is listed as 2 (Score 2=30-60% inhibition).

As for “12,8-metheno-6,2-nitrilo-7H-13,1,5,7,16,19-benzoxapentaazacyclodocosine-3-carbonitrile, 23-chloro-1,14,15,16,17,18,19,20-octahydro-11-methoxy-19-methyl-17-oxo- [Compound 32]”, the “C10 score (inhibition of Lyn human)” value at Lyn (h) was 4 (Score 4=>80% inhibition). Further, the “C11 score (inhibition of Yes human)” value on Yes (h) was 4 (Score 4=>80% inhibition). Besides, the “C2 score (inhibition of CSK human)” value on CSK (h) was 1 (Score 1=10-30% inhibition). At Fms (h), the “C7 score (inhibition of Fms human)” value is given as 1 (Score 1=10-30% inhibition).

Consider `N#Cc1cnc2nc1Nc1cccc(c1)OCC(=O)NCCCOc1cccc(c1)N2` [Compound 25, 14,21-dioxa-2,4,8,17,28-pentaazatetracyclo[20.3.1.1~3,7~.1~9,13~]octacosa-1(26),3,5,7(28),9,11,13(27),22,24-nonaene-6-carbonitrile, 16-oxo-], for which the inhibition at 1 µM on Lyn (h) is 10 to 30%; at Yes (h), 10 to 30%; at CSK (h), 30 to 60%; at Fms (h) it was 30 to 60%.

For the compound `N#Cc1cnc2nc1Nc1cccc(c1)OCC(=O)NCCCCOc1cccc(c1)N2` [Compound 26, 14,22-dioxa-2,4,8,17,29-pentaazatetracyclo[21.3.1.1~3,7~.1~9,13~]nonacosa-1(27),3,5,7(29),9,11,13(28),23,25-nonaene-6-carbonitrile, 16-oxo-], the inhibition at 1 µM lay in the range of 30 to 60% on Lyn (h), 10 to 30% on Yes (h), 10 to 30% at CSK (h) and 30 to 60% at Fms (h).

With `N#Cc1cnc2nc1Nc1cccc(c1)OCCCNC(=O)COc1cccc(c1)N2` [Compound 28, 14,21-dioxa-2,4,8,18,28-pentaazatetracyclo[20.3.1.1~3,7~.1~9,13~]octacosa-1(26),3,5,7(28),9,11,13(27),22,24-nonaene-6-carbonitrile, 19-oxo-], the inhibition at 1 µM on Lyn (h) was 10 to 30%; on Yes (h), 60 to 80%; at CSK (h), 10 to 30%; at Fms (h), 30 to 60%.

As to `COc1ccc2c(c1)OCCCCCCOc1ccc(Cl)cc1Nc1cc(ncn1)N2` [Compound 34, 11H-6,10-metheno-5H-dibenzo[b,k][1,13,4,6,8,10]dioxatetraazacyclononadecine, 13-chloro-17,18,19,20,21,22-hexahydro-2-methoxy-], the inhibition at 1 µM on Lyn (h), at Yes (h), at CSK (h) and on Fms (h) was 10 to 30% each time.

For the compound `COc1ccc2cc1OCCCCCCOc1ccc(Br)cc1Nc1cc(ncn1)N2` [Compound 36, 1H,7H-2,6: 12,8-dimetheno-13,20,1,3,5,7-benzodioxatetraazacyclodocosine, 23-bromo-14,15,16,17,18,19-hexahydro-11-methoxy-], the “C10 score (inhibition of Lyn human)” value at Lyn (h) is reported as 3 (Score 3=60-80% inhibition). The “C11 score (inhibition of Yes human)” value at Yes (h) is on record as 1 (Score 1=10-30% inhibition). The “C2 score (inhibition of CSK human)” value on CSK (h) is given as 1 (Score 1=10-30% inhibition). Moreover, the “C7 score (inhibition of Fms human)” value on Fms (h) is reported as 1 (Score 1=10-30% inhibition).

On to `COc1ccc2cc1OCCCCCCCOc1ccc(Br)cc1Nc1cc(ncn1)N2` [Compound 37, 1H,7H-2,6: 12,8-dimetheno-14H-13,21,1,3,5,7-benzodioxatetraazacyclotricosine, 24-bromo-15,16,17,18,19,20-hexahydro-11-methoxy-], for which the “C10 score (inhibition of Lyn human)” value at Lyn (h) was 2 (Score 2=30-60% inhibition). Further, the “C11 score (inhibition of Yes human)” value on Yes (h) was 1 (Score 1=10-30% inhibition). Further, at CSK (h), the “C2 score (inhibition of CSK human)” value is recorded as 1 (Score 1=10-30% inhibition). Also, the “C7 score (inhibition of Fms human)” value on Fms (h) was 1 (Score 1=10-30% inhibition).

For the compound `COc1ccc2cc1OCCNC(=O)CNC(=O)Cc1ccc(Cl)cc1Nc1cc(ncn1)N2` [Compound 103, 1H,7H-6,2:12,8-dimetheno-13,1,3,5,7,16,19-benzoxahexaazacyclotricosine-17,20(14H)-dione, 24-chloro-15,16,18,19,21-pentahydro-11-methoxy-], the inhibition at 1 µM was > 80% on Lyn (h), > 80% at Yes (h) and 30 to 60% at CSK (h).

Consider `COc1ccc2cc1OCCCNC(=O)C(C)(C)NC(=O)Cc1ccc(Cl)cc1Nc1cc(ncn1)N2` [Compound 105, 6,2:8,12-dimetheno-7H-13,1,3,5,7,17,20-benzoxahexaazacyclotetracosine-18,21-dione, 25-chloro-1,14,15,16,17,19,20,22-octahydro-11-methoxy-19,19-dimethyl-], for which the inhibition at 1 µM is > 80% on Lyn (h), > 80% on Yes (h), 30 to 60% at CSK (h) and 10 to 30% at Fms (h).

Turning to `CC1(C)NC(=O)Cc2ccc(Cl)cc2Nc2cc(ncn2)Nc2ccc(OCCCN3CCOCC3)c(c2)OCCNC1=O` [Compound 106, 1H,7H-6,2:8,12-dimetheno-13,1,3,5,7,16,19-benzoxahexaazacyclotricosine-17,20(14H)-dione, 24-chloro-15,16,18,19,21-pentahydro-18,18-dimethyl-11-[3-(4-morpholinyl)propoxy]-], the inhibition at 1 µM is > 80% on Lyn (h), > 80% on Yes (h), 60 to 80% at CSK (h) and 10 to 30% on Fms (h).
